Laboratory results published in patent US9556165B2 (priority 2012, dated 2017).

Columns and labels:
Assay type in all cases: cell-based
[1] = tested on: C. perfringens DSM756; test: microbe, parasite or virus in culture; settings: strain 16
[2] = tested on: strain 20; test: MIC determination, broth microdilution (CLSI)
[3] = tested on: P. aeruginosa PAO1; test: MIC determination, broth microdilution (CLSI); settings: strain 6
[4] = tested on: K. pneumoniae 60; test: MIC determination, broth microdilution (CLSI); settings: strain 2
[5] = tested on: M. morganii 126/3048; test: MIC determination, broth microdilution (CLSI); settings: strain 5
[6] = tested on: S. maltophilia ICB7569; test: MIC determination, broth microdilution (CLSI)
[7] = tested on: P. aeruginosa 2297-con (AmpC derepressed); test: MIC determination, broth microdilution (CLSI)
[8] = tested on: strain 21; test: MIC determination, broth microdilution (CLSI)
[9] = tested on: E. coli J62-TEM-3; test: MIC determination, broth microdilution (CLSI); settings: for MIC: Escherichia coli, J62TEM3, read-out: strain 18 MIC, strain 18
[10] = tested on: S. aureus 133; test: MIC determination, broth microdilution (CLSI)
[11] = tested on: B. fragilis 6688; test: MIC determination, broth microdilution (CLSI)
[12] = tested on: H. influenzae ATCC 49247; test: MIC determination, broth microdilution (CLSI)
[13] = tested on: A. baumannii ATCC15308; test: MIC determination, broth microdilution (CLSI)
[14] = tested on: strain 19; test: MIC determination, broth microdilution (CLSI)
[15] = tested on: E. coli ATCC25922; test: MIC determination, broth microdilution (CLSI); settings: strain 1
[16] = tested on: C. freundii K21/3034; test: MIC determination, broth microdilution (CLSI); settings: strain 4
[17] = tested on: P. aeruginosa 2297 (AmpC wt); test: MIC determination, broth microdilution (CLSI)
[18] = tested on: M. catarrhalis ICB489; test: MIC determination, broth microdilution (CLSI); settings: strain 12
[19] = tested on: E. cloacae 34654; test: MIC determination, broth microdilution (CLSI); settings: strain 3
[20] = tested on: E. coli J62; test: MIC determination, broth microdilution (CLSI); settings: strain 17

Compound | strain 16 MIC [1] [µg/mL] | strain 20 MIC [2] [µg/mL] | strain 6 MIC [3] [µg/mL] | strain 2 MIC [4] [µg/mL] | strain 5 MIC [5] [µg/mL] | strain 8 MIC [7] [µg/mL] | strain 21 MIC [8] [µg/mL] | MIC [9] [µg/mL] | strain 15 MIC [11] [µg/mL] | strain 9 MIC [13] [µg/mL] | strain 19 MIC [14] [µg/mL] | strain 1 MIC [15] [µg/mL] | strain 4 MIC [16] [µg/mL] | strain 7 MIC [17] [µg/mL] | strain 12 MIC [18] | strain 3 MIC [19] [µg/mL] | strain 17 MIC [20] [µg/mL] | strain 10 MIC [6] [µg/mL] | strain 11 MIC [10] | strain 13 MIC [12] [µg/mL] | also measured
CC1(C)[C@H](NC(=O)/C(=N\OC(COc2ccc(C(=N)N)cc2)C(=O)O)c2csc(N)n2)C(=O)N1OS(=O)(=O)O (mixture of isomers) [Example 27A, (2S and 2R)-2-({[(1Z)-1-(2-Amino-1,3-thiazol-4-yl)-2-{[(3S)-2,2-dimethyl-4-oxo-1-(sulfo-oxy)azetidin-3-yl]amino}-2-oxoethylidene]amino}oxy)-3-(4-carbamimidoylphenoxy)-propanoic acid] | 4 | 0.25 | 4 | 0.125 | 0.125 | 4 | 0.25 | 8 | 8 | 4 | 0.25 | 0.25 | 0.25 | 4 | ≦0.063 mg/L | 0.25 | 0.25 | – | – | – | MIC ([6]; Stenotrophomonas maltophilia, ICB7569, strain 10): 4 µg/mL; MIC ([10]; Staphylococcus aureus, 133, strain 11, read-out: strain 11 MIC): ≤ 0.063 µg/mL; MIC ([12]; Haemophilus influenzae, ATCC49247, strain 13, read-out: strain 13 MIC): 0.5 µg/mL
CC1(C)[C@H](NC(=O)/C(=N\OC(COc2ccc(C(=N)N)cc2)C(=O)O)c2csc(N)n2)C(=O)N1OS(=O)(=O)O (mixture of isomers) [Example 27B, (2S and 2R)-2-({[(1Z)-1-(2-Amino-1,3-thiazol-4-yl)-2-{[(3S)-2,2-dimethyl-4-oxo-1-(sulfo-oxy)azetidin-3-yl]amino}-2-oxoethylidene]amino}oxy)-3-(4-carbamimidoylphenoxy)-propanoic acid] | 32 | 2 | 16 | 1 | 1 | 16 | 2 | – | 32 | 16 | 1 | 2 | 1 | 32 | 0.25 µg/mL | 4 | 2 | 8 | 0.125 µg/mL | 0.5 | strain 18 MIC ([9]; strain 18): 8 µg/mL
CC1(C)[C@H](NC(=O)/C(=N\OC(COc2ccc(C(=N)N)c(O)c2)C(=O)O)c2csc(N)n2)C(=O)N1OS(=O)(=O)O (mixture of isomers) [Example 34A, (2S and 2R)-2-({[(1Z)-1-(2-Amino-1,3-thiazol-4-yl)-2-{[(3S)-2,2-dimethyl-4-oxo-1-(sulfo-oxy)azetidin-3-yl]amino}-2-oxoethylidene]amino}oxy)-3-(4-carbamimidoyl-3-hydroxyphenoxy)propanoic acid] | 2 | 0.5 | 8 | 1 | 0.25 | – | 0.5 | 32 | – | – | 0.5 | 1 | 1 | 8 | ≦0.063 mg/L | 0.5 | 1 | 8 | ≦0.063 mg/L | 0.5 | MIC ([7]; Pseudomonas aeruginosa, read-out: strain 8 MIC, strain 8): 16 µg/mL; MIC ([11]; Bacteroides fragilis, 6688, strain 15, read-out: strain 15 MIC): 16 µg/mL; MIC ([13]; Acinetobacter baumannii, ATCC15308, strain 9): 32 µg/mL
